Where two headings read alike, the source gives them in different places.
Experiments:
[1] = Preparation of liposome: maximum amount of compound forming liposome, particle size; assay type: physicochemical; settings: with dipalmitoyl-PC 50 nmol + dipalmitoyl-PS 50 nmol, 0.9% physiological saline, ultrasonicated
Protocol: According to the method described in J. Med. Chem., 25 (12), 1500 (1982), the disclosure of which is expressly incorporated by reference herein in its entirety, dipalmitoyl-PC (Funakoshi, No. 1201-41-0225), dipalmitoyl-PS (Funakoshi, No. 1201-42-0237), and the compound of the present invention, in the ratio described below, were dissolved in chloroform contained in an eggplant-shaped flask to obtain a uniform solution, and then the solvent was evaporated under reduced pressure to obtain a thin membrane formed on the bottom of the flask. The thin membrane was dried in vacuo, then added with an appropriate volume of 0.9% physiological saline (Hikari Pharmaceutical, No. 512) and ultrasonicated (probe type oscillator, Branson, No. 3542, 0.1 mW) for 5 minute with ice cooling to obtain a uniform liposome dispersion. Size of the particles contained in the resulting dispersion was measured by using WBC analyzer (Nihon Kohden, A-1042). The particle sizes were 85 to 110 nm.
Liposome formulation having the ratio of PC:PS:Compound d1-6=50:50:40 (nmol), and a particle sizes of 85 to 120 nm are prepared from a chloroform solution of PC (dipalmitoyl-phosphatidylcholine Funakoshi, No. 850355C), PS (dipalmitoyl-phosphatidylserine Funakoshi, No. 840037C), and Compound d1-6.

[2] = tested on: vascular smooth muscle cells; assay: Introduced amount of the compounds to vascular smooth muscle cells (mixture culture with macrophage); assay type: cell-based; settings: liposome PC 50 nmol + PS 50 nmol + compound, 37° C., 5% CO2, 24 hours
Protocol: The above liposome agent was added to a mixture culture system of vascular smooth muscle cells and macrophage, described in WO 01/082897, the disclosure of which is expressly incorporated by reference herein in its entirety. After cultivation under 37° C., 5% CO2 for 24 hours, the amount of the compounds introduced to the vascular smooth muscle cells were quantitated.

ICR male mice = assay type: in vivo
Protocol: Six-week old ICR male mice (Charles River Japan) were purchased, and after quarantine for 1 week, acclimatized for 1 week in a clean animal cage (air-conditioning: HEPA filter of class 1000, room temperature: 20 to 24° C., humidity: 35 to 60%). Then, in order to obtain the MTD value, a suspension of the test compound was administered from the caudal vein. The suspension was administered by using physiological saline (Hikari Pharmaceutical) or a glucose solution (Otsuka Pharmaceutical) as a medium. On the basis of the MTD value obtained, the suspension was administered everyday from the caudal vein for three consecutive days in an amount corresponding to ½ of the MTD value (n=3). Symptoms were observed up to 6 hours after each administration to observe neurotoxicity, and then autopsy was performed to examine major organs.
Compound (MTD (mg/kg)): neurotoxicity (“−” indicates negative for neurotoxicity, and “+” indicate positive for neurotoxicity)

[3] = suspension administered from the caudal vein, ICR male mice

| Structure (SMILES) | Maximum amount forming liposome [1] [nmol] | Introduced amount [2] [nmol/mg protein] | MTD (ICR male mice; [3]) [mg/kg] | MTD (ICR male mice; mouse, in vivo) [mg/kg] |
| --- | --- | --- | --- | --- |
| CC(C)CCC[C@@H](C)[C@H]1CC[C@H]2[C@@H]3CC=C4C[C@@H](OC(=O)Oc5cc(C(F)(F)F)cc(C(F)(F)F)c5)CC[C@]4(C)[C@H]3CC[C@]12C [Compound b1-1] | 40 | 17.5 | 400 |  |
| CC(C)CCC[C@@H](C)[C@H]1CC[C@H]2[C@@H]3CC=C4C[C@@H](OC(=O)CCCCCCCCCC(C)Oc5cc(C(F)(F)F)cc(C(F)(F)F)c5)CC[C@]4(C)[C@H]3CC[C@]12C (some centres unmarked) [Compound b1-8] | 20 | 8.9 | 400 |  |
| CC(C)CCC[C@@H](C)[C@H]1CC[C@H]2[C@@H]3CC=C4C[C@@H](OC(=O)CCC(=O)Oc5cc(C(F)(F)F)cc(C(F)(F)F)c5)CC[C@]4(C)[C@H]3CC[C@]12C [Compound b4-2] | 20 | 10.6 | 400 |  |
| O=C(CCCCCCCC(F)(F)C(F)(F)C(F)(F)C(F)(F)C(F)(F)C(F)(F)F)OCC(COC(=O)CN1CCOCC1)OC(=O)CCCCCCCC(F)(F)C(F)(F)C(F)(F)C(F)(F)C(F)(F)C(F)(F)F (centres unmarked) [Compound e1-6] | 40 |  |  | 400 |
